These results are taken from patent US9745328B2, “Flap modulators” (JANSSEN PHARMACEUTICA NV, priority 2013, dated 2017).

The target of test [1] is human FLAP (Homo sapiens (Human), UniProt P20292). Nature of the test: FLAP binding assay (HTRF format). Conditions: human FLAP wild type, Table 6 (additional runs). The procedure, abridged:
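Binding values are averages from two separate assay plates, with each sample run in duplicate per plate. Data are expressed as an HTRF ratio.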
In general terms: In TR-FRET formats the signal depends on donor and acceptor labels being close together.

Test [2] relates to leukotriene pathway in human whole blood (LTB4). The test is described as follows: Human whole blood assay (LTB4 levels after calcium ionophore A23187 stimulation). It counts as cell-based. Conditions: Homo sapiens, human whole blood diluted 1:1, A23187 stimulation; Table 6 (additional runs); read-out: Human Whole Blood LTB4 IC50 1:1. On the procedure:
The ability of the compounds of the present invention to treat a FLAP-mediated disease and/or disorder, or associated symptoms or complications thereof, was determined using the following procedures. Binding assay data represent the average value obtained from two different assay plates, with samples run in duplicate on each plate. Human whole blood assay data represent a single replicate on an assay plate using whole blood from at least one healthy donor.
An in vitro cellular assay was performed using human whole blood collected in heparin-containing tubes, which was used to test the ability of compounds to modulate the leukotriene pathway in human whole blood. The blood was diluted 1:1 in RPMI medium, pre-incubated for 15 min at 37° Celsius with test compounds at various concentrations, and then stimulated with calcium ionophore, A23187 (7 μg/mL), for 30 min at 37° Celsius. The samples were then centrifuged and plasma was removed. The plasma was diluted in assay buffer and LTB4 levels were measured using a commercial kit (Enzo Life Sciences). The concentration of each compound that was required for half-maximal inhibition (modulation) of recombinant enzyme activity (IC50) was calculated by a 4-parameter equation using the program GraphPad Prism (GraphPad software).

The structures appear in SMILES notation. Counter-ions that a name gives are not always drawn.

Chain of human FLAP (P20292 whole entry): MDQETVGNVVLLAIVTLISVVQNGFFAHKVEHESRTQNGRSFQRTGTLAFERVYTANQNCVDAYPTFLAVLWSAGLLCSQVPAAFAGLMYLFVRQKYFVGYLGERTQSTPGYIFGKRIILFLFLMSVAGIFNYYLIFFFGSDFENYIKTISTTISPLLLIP

By Ki is commonly meant a dissociation constant, usually derived from enzyme kinetics or from competition with a known ligand. Lower therefore signals higher affinity. Broadly, the IC50 is the concentration at which inhibition is half-maximal. As to `CC(C)(C)NS(=O)(=O)c1ccccc1-c1ccc(-c2cnc(N)c(N)n2)c(F)c1` [Example 428, N-tert-Butyl-4′-(5,6-diaminopyrazin-2-yl)-3′-fluorobiphenyl-2-sulfonamide], in test [1], the Ki was 4.3 nM. Moreover, in test [2], the IC50 is 4.4 nM.

Consider `CC(C)(C)NS(=O)(=O)c1ccccc1-c1ccc(-c2cnc(N)c(Cl)n2)c(F)c1` [Example 441, 4′-(5-Amino-6-chloropyrazin-2-yl)-N-tert-butyl-3′-fluorobiphenyl-2-sulfonamide], for which, in test [1], the Ki was determined as 0.8 nM. Moreover, the IC50 in test [2] is 6.5 nM.

Regarding `Nc1cnc(-c2ccc(-c3ccccc3OC(F)(F)F)cc2F)cn1` [Example 475, 5-[3-Fluoro-2′-(trifluoromethoxy)biphenyl-4-yl]pyrazin-2-amine], in test [1], the Ki came out at 89.6 nM. In test [2], the IC50 was 4180 nM.

`Nc1cnc(-c2ccc(-c3ccccc3O)cc2F)cn1` [Example 476, 4′-(5-aminopyrazin-2-yl)-5′-fluorobiphenyl-2-ol] showed a Ki in test [1] of 24.1 nM. In test [2], the IC50 was found to be 350 nM.

In turn, `Nc1cnc(-c2ccc(-c3ccccc3S(=O)(=O)c3ccccc3)cc2F)cn1` [Example 477, 5-[3-Fluoro-2′-(phenylsulfonyl)biphenyl-4-yl]pyrazin-2-amine] yielded a Ki in test [1] of 14.7 nM. For the same compound, in test [2], the IC50 was determined as 268 nM.

Compound `CC(C)c1ccccc1-c1ccc(-c2cnc(N)cn2)c(F)c1` [Example 482, 5-[3-Fluoro-2′-(1-methylethyl)biphenyl-4-yl]pyrazin-2-amine] came in with a Ki in test [1] of 60.9 nM. Also, in test [2], the IC50 was determined as 320 nM.

The compound `Nc1ncc(-c2ccc(-c3ccc(C(F)(F)F)cc3C(=O)N3CCOCC3)cc2F)cn1` [Example 522, 5-[3-Fluoro-2′-(morpholin-4-ylcarbonyl)-4′-(trifluoromethyl)biphenyl-4-yl]pyrimidin-2-amine] gave a Ki in test [1] of 286 nM. The IC50 in test [2] worked out at 264 nM.

Regarding `Nc1cnc(-c2ccc(-c3ccccc3Oc3cc(N)ncn3)cc2F)cn1` [Example 535, 6-{[4′-(5-Aminopyrazin-2′yl)-3′-fluorobiphenyl-2-yl]oxy}pyrimidin-4′-amine], the Ki in test [1] came to 1.5 nM. Further, in test [2], the IC50 worked out at 15.5 nM.

For the compound `CCNS(=O)(=O)c1cc(C(F)(F)F)ccc1-c1cnc(-c2cnc(N)nc2)c(F)c1` [Example 674, 2-[6-(2-Aminopyrimidin-5-yl)-5-fluoropyridin-3-yl]-N-ethyl-5-(trifluoromethyl)benzenesulfonamide], the affinity in test [1], expressed as Ki, was 3.6 nM. For the same compound, the IC50 in test [2] is 13.3 nM.

In test [1], `CC(=O)N1CCC(S(=O)(=O)c2ncccc2-c2ccc(-c3cnc(N)cn3)c(F)c2)CC1` [Example 816, 1-((3-(4-(2-Aminopyrazin-5-yl)-3-fluorophenyl)pyridine-2-yl)sulfonyl)piperidin-1-yl)ethanone hydrogen chloride salt] displayed a Ki of 37 nM. Moreover, in test [2], the IC50 worked out at 61 nM.

Compound `Nc1cnc(-c2ccc(-c3cccnc3S(=O)(=O)C3CC3)cc2F)cn1` [Example 829, 5-{4-[2-(Cyclopropylsulfonyl)pyridin-3-yl]-2-fluorophenyl}pyrazin-2-amine formic acid salt] returned a Ki in test [1] of 5.7 nM. The IC50 in test [2] came out at 9 nM.

Regarding `Nc1ncc(-c2ccc(-c3cccnc3S(=O)(=O)C3CCOCC3)cc2F)cn1` [Example 831, 5-{2-Fluoro-4-[2-(tetrahydro-2H-pyran-4-ylsulfonyl)pyridin-3-yl]phenyl}pyrimidin-2-amine formic acid salt], the affinity in test [1], expressed as Ki, was 149 nM. Besides, the IC50 in test [2] was 72.5 nM.

`N#Cc1ncc(-c2ccccc2-c2ccc(-c3cnc(N)cn3)c(F)c2)cn1` [Example 849, 5-[4′-(5-Aminopyrazin-2-yl)-3′-fluorobiphenyl-2-yl]pyrimidine-2-carbonitrile] came in with a Ki in test [1] of 38.3 nM. Moreover, in test [2], the IC50 was determined as 3900 nM.

In test [1], `Nc1ccc(-c2ccccc2-c2ccc(-c3cnc(N)cn3)c(F)c2)cn1` [Example 861, 5-[2′-(6-Aminopyridin-3-yl)-3-fluorobiphenyl-4-yl]pyrazin-2-amine] returned a Ki of 4 nM. Further, the IC50 in test [2] amounted to 44.9 nM.

`Nc1cnc(-c2ccc(-c3ccccc3-c3cnc(N4CCNCC4)nc3)cc2F)cn1` [Example 862, 5-[3-Fluoro-2′-(2-piperazin-1-ylpyrimidin-5-yl)biphenyl-4-yl]pyrazin-2-amine]: the affinity in test [1] corresponds to a Ki of 122 nM. Moreover, in test [2], the IC50 was found to be 121 nM.

`NCCn1cc(-c2ccccc2-c2ccc(-c3cnc(N)cn3)c(F)c2)cn1` [Example 864, 5-{2′-[1-(2-Aminoethyl)-1H-pyrazol-4-yl]-3-fluorobiphenyl-4-yl]pyrazin-2-amine] returned a Ki in test [1] of 216 nM. For the same compound, the IC50 in test [2] was found to be 413 nM.

In turn, `Nc1ccc(-c2ccccc2-c2ccc(-c3cnc(N)nc3)c(F)c2)cn1` [Example 865, 5-[2′-(6-Aminopyridin-3-yl)-3-fluorobiphenyl-4-yl]pyrimidin-2-amine] had a Ki in test [1] of 96.2 nM. Further, in test [2], the IC50 was 192 nM.

For the compound `CNc1ncc(-c2ccccc2-c2ccc(-c3cnc(N)nc3)c(F)c2)cn1` [Example 866, 5-[4′-(2-Aminopyrimidin-5-yl)-3′-fluorobiphenyl-2-yl]-N-methylpyrimidin-2-amine], the Ki in test [1] was found to be 170 nM. Besides, the IC50 in test [2] was determined as 539 nM.

The compound `Nc1ncc(-c2ccc(-c3ccccc3-c3ccnc(N)n3)cc2F)cn1` [Example 867, 4-[4′-(2-Aminopyrimidin-5-yl)-3′-fluorobiphenyl-2-yl]pyrimidin-2-amine] displayed a Ki in test [1] of 246 nM. Moreover, in test [2], the IC50 was 793 nM.

`Nc1cnc(-c2ccc(-c3ccccc3-c3ccnc(N)n3)cc2F)cn1` [Example 868, 4-[4′-(5-Aminopyrazin-2-yl)-3′-fluorobiphenyl-2-yl]pyrimidin-2-amine] gave a Ki in test [1] of 21.5 nM. In addition, in test [2], the IC50 is 345 nM.

Consider `COCCn1cc(-c2ccccc2-c2ccc(-c3cnc(N)cn3)c(F)c2)cn1` [Example 869, 5-{3-Fluoro-2′-[1-(2-methoxyethyl)-1H-pyrazol-4-yl]biphenyl-4-yl}pyrazin-2-amine], for which the affinity in test [1], expressed as Ki, was 141 nM. Besides, the IC50 in test [2] amounted to 844 nM.

As for `Nc1cnc(-c2ccc(-c3ccccc3-c3cn[nH]c3)cc2F)cn1` [Example 870, 5-[3-Fluoro-2′-(1H-pyrazol-4-yl)biphenyl-4-yl]pyrazin-2-amine], in test [1], the Ki came to 14.3 nM. Besides, the IC50 in test [2] worked out at 86.7 nM.

As for `N#CCn1cc(-c2ccccc2-c2ccc(-c3cnc(N)cn3)c(F)c2)cn1` [Example 871, {4-[4′-(5-Aminopyrazin-2-yl)-3′-fluorobiphenyl-2-yl]-1H-pyrazol-1-yl}acetonitrile], the affinity in test [1] corresponds to a Ki of 25 nM. Moreover, the IC50 in test [2] amounted to 371 nM.

As for `CNc1ncc(-c2ccccc2-c2ccc(-c3cnc(N)cn3)c(F)c2)cn1` [Example 872, 5-[4′-(5-Aminopyrazin-2-yl)-3′-fluorobiphenyl-2-yl]-N-methylpyrimidin-2-amine], in test [1], the Ki turned out to be 8.3 nM. Besides, the IC50 in test [2] turned out to be 53 nM.

Regarding `Nc1cnc(-c2ccc(-c3ccccc3-c3cnsc3)cc2F)cn1` [Example 873, 5-(3-Fluoro-2′-isothiazol-4-ylbiphenyl-4-yl)pyrazin-2-amine], the Ki in test [1] turned out to be 23.1 nM. Besides, the IC50 in test [2] came out at 336 nM.

`Nc1cnc(-c2ccc(-c3ccccc3-c3cnn(CCO)c3)cc2F)cn1` [Example 874]: the Ki in test [1] came out at 51.1 nM. In addition, in test [2], the IC50 came to 359 nM.

Take `N#CCn1cc(-c2ccccc2-c2ccc(-c3cnc(N)nc3)c(F)c2)cn1` [Example 875, {4-[4′-(2-Aminopyrimidin.-5-yl)-3′-fluorobiphenyl-2-yl]-1H-pyrazol-yl}acetonitrile]: the Ki in test [1] stood at 170 nM. Further, the IC50 in test [2] worked out at 851 nM.

On to `Nc1ncc(-c2ccc(-c3ccccc3-c3cn[nH]c3)cc2F)cn1` [Example 876, 5-[3-Fluoro-2′-(1H-pyrazo-4-yl)biphenyl-4-yl]pyrimidin-2-amine], for which the Ki in test [1] amounted to 80.3 nM. For the same compound, the IC50 in test [2] was 1080 nM.

Compound `C[C@H](NS(=O)(=O)c1ccccc1-c1cnc(-c2cnc(N)nc2)c(F)c1)C(F)(F)F` [Example 877, 2-[6-(2-Aminopyrimidin-5-yl)-5-fluoropyridin-3-yl]-N-[(1S)-2,2,2-trifluoro-1-methylethyl]penzenesulfonamide as the hydrochloride salt] showed a Ki in test [1] of 4.7 nM. Also, in test [2], the IC50 amounted to 10.5 nM.

As to `Nc1ncc(-c2ncc(-c3ccccc3S(=O)(=O)C3CC3)cc2F)cn1` [Example 878, 5-{5-[2-(Cyclopropylsulfonyl)phenyl]-3-fluoropyridin-2-yl}pyrimidin-2-amine], the Ki in test [1] was 276 nM. In test [2], the IC50 was 320 nM.

`C[C@H](O)CNS(=O)(=O)c1ccccc1-c1cnc(-c2cnc(N)nc2)c(F)c1` [Example 879, 2-[6-(2-Aminopyrimidin-5-yl)-5-fluoropyridin-3-yl]-N-[(2S)-2-hydroxypropyl]benzenesulfonamide] gave a Ki in test [1] of 168 nM. Moreover, the IC50 in test [2] came out at 106 nM.

In test [1], `C[C@@H](CO)NS(=O)(=O)c1ccccc1-c1cnc(-c2cnc(N)nc2)c(F)c1` [Example 880, 2-[6-(2-Aminopyrimidin-5-yl)-5-fluoropyridin-3-yl]-N-[(1S)-2-hydroxy-1-methylethyl]benzenesulfonamide] yielded a Ki of 86.7 nM. Further, the IC50 in test [2] was found to be 180 nM.
